Values of other authors in publication PMC11289879 (RSC Chemical Biology, 2024).

Legend:
acute heart failure = conditions: clinical trial (Novartis; second phase III)

solubility in an acidic solvent | Substance | effect on the treatment of acute heart failure (acute heart failure)
– | Human relaxin-2 [H2 relaxin] | no significant effect
poorly soluble | DSWMEEVIKLCGRELVRAQIAICGMSTWS [B-chain] | –
